Assays:
Bcl2l11 = experiment: Biomarkers validation by q-pcr in precision cut liver slices: Bcl2l11 expression
Description: (§1) 23-weeks old male C57BL/6 mice were obtained from Harlan (Horst, The Netherlands). Animals were kept for 1 week at a housing temperature of 22°C and at a relative humidity of 30-70%. The lighting cycle was 12-h light and 12-h dark. At the age of 24 weeks animals were sacrificed by an overdose of isoflurane. The treatment protocol was approved by the Ethical Committee for Animal Experiments at Wageningen University.
(§2) Immediately after the animals were killed the liver was perfused with PBS and placed in ice-cold Krebs-Henseleit buffer (KHB) (pH 7.4, supplemented with 11 mM glucose). Liver tissue was transported to the laboratory within approximately 30 min and cylindrical liver cores were produced using a surgical biopsy punch with diameter of 5 mm (KAI, SynErgo Europe, Romania). Liver cores were placed in a Krumdieck tissue slicer (Alabama Research and Development, Munford, AL) filled with ice-cold KHB aerated with carbogen and supplemented with 11 mM glucose. Precesion cut liver slices (PCLS) with a diameter of 5 mm, a thickness of 0.2 mm and a weight of approximately 10 mg were prepared. Immediately after preparation, slices were transferred into culture plates filled with pre-warmed (37 degrees C) Williams E medium (WEM). Three liver slices were pre-cultured in one well of the 6-well plate filled with 4 ml of WEM for one hour with continuous shaking (70 rpm). Incubations were performed in an oxygen controlled incubator (Galaxy 48 R New Brunswick, Nijmegen, the Netherlands) at 80% of oxygen; 5% CO2 and the remaining gas volume was filled up to […] with N2. After one hour of pre-incubation, media were removed and replaced with fresh media containing test compounds or appropriate solvents. After incubations, samples were snap-frozen in liquid nitrogen and stored in -80 °C for further analysis. Samples dedicated to histology were stored in 4 % formaldehyde at room temperature.
(§3) PCLS were incubated at the same conditions as described above. Slices were exposed for 24 and 48 hours to one concentration of the tested compounds or controls. Concentrations used in the exposure experiments were preselected in the dose selection experiments for each drug individually. […] For the necrotic compounds: 1000 uM acetaminophen, 5 µM paraquat and 1000 uM isoniazid. Liver slices obtained from five mice were used in five toxic compound or control exposure experiments performed at the same time. Dose selection experiments and exposure experiments were performed at different days. Therefore, ATP, LDH, and protein assays were performed again for the exposure experiments to confirm that the selected doses did also not affect slice viability in these experiments.
(§4) In further studies, expression of ten candidate biomarkers in PCLS was analyzed by q-pcr using the Biorad CFX96 TM Real-Time Detection System (Bio-Rad, Veenendaal, The Netherlands) with the following cycling conditions: 15 min 95°C followed by 40 cycles of 15s 95 °C and 1 min 60 °C. Reactions were performed in 10 µl and contained 20 ng cDNA, 1x TaqMan PCR Master Mix (Applied Biosystems, Foster City, CA), and depending on the analysed gene, 250 nM probe and 900 nM primer (for actin b) or 1xTaqMan gene expression assay (for the remaining genes) (Applied Biosystems, foster City, CA).

Parp16 = experiment: Biomarkers validation by q-pcr in precision cut liver slices: Parp16 expression
Description: as §1, §2, §3, §4

Mras = experiment: Biomarkers validation by q-pcr in precision cut liver slices: Mras expression
Description: as §1, §2, §3, §4

Myo1e = experiment: Biomarkers validation by q-pcr in precision cut liver slices: Myo1e expression
Description: as §1, §2, §3, §4

Nme6 = experiment: Biomarkers validation by q-pcr in precision cut liver slices: Nme6 expression
Description: as §1, §2, §3, §4

ABCG5 = experiment: Biomarkers validation by q-pcr in precision cut liver slices: ABCG5 expression
Description: as §1, §2, §3, §4

ABCG8 = experiment: Biomarkers validation by q-pcr in precision cut liver slices: ABCG8 expression
Description: as §1, §2, §3, §4

SERPINE1 = experiment: Biomarkers validation by q-pcr in precision cut liver slices: SERPINE1 expression
Description: as §1, §2, §3, §4

BAAT = experiment: Biomarkers validation by q-pcr in precision cut liver slices: BAAT expression
Description: as §1, §2, §3, §4

KLF15 = experiment: Biomarkers validation by q-pcr in precision cut liver slices: KLF15 expression
Description: as §1, §2, §3, §4

PCLS = experiment: Cytotoxicity analysis - dose selection experiments (LDH, ATP, protein assay)
Description: as §1, §2, §3

## C[n+]1ccc(-c2cc[n+](C)cc2)cc1 [PQ, paraquat]
Bcl2l11
  *fold change 1, gene expression level Bcl2111: 1,3
  *fold change 2, gene expression level Bcl2111: 1,1
  *fold change 3, gene expression level Bcl2111: 1,1
  *fold change 4, gene expression level Bcl2111: 1,2
  *fold change 5, gene expression level Bcl2111: 1,1
Parp16
  *fold change 1, gene expression level Parp 16: 1,6
  *fold change 2, gene expression level Parp 16: 1,0
  *fold change 3, gene expression level Parp 16: 1,0
  *fold change 4, gene expression level Parp 16: 1,1
  *fold change 5, gene expression level Parp 16: 1,4
Mras
  *fold change 1, gene expression level Mras: 1,4
  *fold change 2, gene expression level Mras: 1,3
  *fold change 3, gene expression level Mras: 1,1
  *fold change 4, gene expression level Mras: 1,1
  *fold change 5, gene expression level Mras: 1,4
Myo1e
  *fold change 1, gene expression level Myo 1e: 1,1
  *fold change 2, gene expression level Myo 1e: 1,4
  *fold change 3, gene expression level Myo 1e: 1,1
  *fold change 4, gene expression level Myo 1e: 1,2
  *fold change 5, gene expression level Myo 1e: 1,2
Nme6
  *fold change 1, gene expression level Nme6: 1,1
  *fold change 2, gene expression level Nme6: -1,2
  *fold change 3, gene expression level Nme6: 1,0
  *fold change 4, gene expression level Nme6: 1,1
  *fold change 5, gene expression level Nme6: 1,2
ABCG5
  *fold change 1, gene expression level ABCG5: 1,1
  *fold change 2, gene expression level ABCG5: 1,1
  *fold change 3, gene expression level ABCG5: 1,7
  *fold change 4, gene expression level ABCG5: -1,3
  *fold change 5, gene expression level ABCG5: -1,6
ABCG8
  *fold change 1, gene expression level ABCG8: 1,0
  *fold change 2, gene expression level ABCG8: -1,2
  *fold change 3, gene expression level ABCG8: 1,8
  *fold change 4, gene expression level ABCG8: -1,3
  *fold change 5, gene expression level ABCG8: -1,4
SERPINE1
  *fold change 1, gene expression level SERPINE1: 2,7
  *fold change 2, gene expression level SERPINE1: 2,3
  *fold change 3, gene expression level SERPINE1: 2,7
  *fold change 4, gene expression level SERPINE1: 1,3
  *fold change 5, gene expression level SERPINE1: 1,9
SERPINE1; Mann-Whitney test vs controls, 5 mice, mouse PCLS, same concentrations as fold change columns
  MW test, gene expression level SERPINE1: * (A p-value <0.05 was considered significant)
BAAT
  *fold change 1, gene expression level BAAT: -1,2
  *fold change 2, gene expression level BAAT: -1,0
  *fold change 3, gene expression level BAAT: 1,7
  *fold change 4, gene expression level BAAT: 1,1
  *fold change 5, gene expression level BAAT: -1,4
KLF15
  *fold change 1, gene expression level KLF15: 1,3
  *fold change 2, gene expression level KLF15: -1,0
  *fold change 3, gene expression level KLF15: 1,3
  *fold change 4, gene expression level KLF15: 1,1
  *fold change 5, gene expression level KLF15: -1,2
PCLS; mouse PCLS, LDH, ATP, and protein assay, concentration then used in exposure experiments
  highest concentration that did not cause significant increase of toxicity: 5 µM

## CCCC(CCC)C(=O)O [VA, valproic acid]
PCLS; male, C57BL/6, mouse
  highest concentration that did not cause significant increase of toxicity: 200 µM

— patent publication EP2762573A1, “In vitro method for determining cholestatic properties of a compound” (priority 2013, dated 2014)
